Experimental data taken from PubChem BioAssay AID248 (DTP/NCI, 2004).
Toxic doses and inconclusive results are not listed. No stated cut-off is given here; in the data, active means T/C of 150% or more; inactive means T/C below 125%.

System: L1210 leukemia ip in BDF1 mice, survival T/C
Experiment: NCI In Vivo Anticancer Drug Screen. Data for tumor model L1210 Leukemia (intraperitoneal) in B6D2F1 (BDF1) mice
Settings: endpoint: mean survival time, higher = longer survival
Method in brief: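 Tumor cells were implanted, animals were treated, and survival was followed. The result divides the treated measurement by the vehicle-control measurement.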

[1] = dose: 50.0 mg/kg/injection, schedule: Q04DX002 (ip), vehicle: saline
[2] = dose: 100.0 mg/kg/injection, schedule: Q01DX009 (ip), vehicle: saline with Tween-80
[3] = dose: 100.0 mg/kg/injection, schedule: Q04DX002 (ip), vehicle: saline with Tween-80
[4] = dose: 100.0 mg/kg/injection, schedule: Q04DX002 (ip), vehicle: saline
[5] = dose: 100.0 mg/kg/injection, schedule: Q01DX009 (ip), vehicle: Klucel (hydroxypropylcellulose) (HPC)
[6] = dose: 100.0 mg/kg/injection, schedule: Q04DX003 (ip), vehicle: Klucel (hydroxypropylcellulose) (HPC)
[7] = dose: 200.0 mg/kg/injection, schedule: Q01DX009 (ip), vehicle: Klucel (hydroxypropylcellulose) (HPC)
[8] = dose: 200.0 mg/kg/injection, schedule: Q04DX003 (ip), vehicle: Klucel (hydroxypropylcellulose) (HPC)
[9] = dose: 400.0 mg/kg/injection, schedule: Q01DX009 (ip), vehicle: Klucel (hydroxypropylcellulose) (HPC)
[10] = dose: 400.0 mg/kg/injection, schedule: Q04DX003 (ip), vehicle: Klucel (hydroxypropylcellulose) (HPC)
[11] = dose: 50.0 mg/kg/injection, schedule: Q01DX009 (ip), vehicle: Klucel (hydroxypropylcellulose) (HPC)
[12] = dose: 100.0 mg/kg/injection, schedule: Q04DX003 (ip), vehicle: saline with Tween-80
[13] = dose: 12.5 mg/kg/injection, schedule: Q01DX009 (ip), vehicle: saline

Measured: T/C

O=[N+]([O-])c1ccc(C=Nc2ccc3c(c2)C(Br)c2ccccc2-3)cc1 (stereo not drawn)
inactive: dose: 100.0 mg/kg/injection, schedule: Q01DX Z (ip), vehicle: saline 91 % of control | dose: 200.0 mg/kg/injection, schedule: Q01DX Z (ip), vehicle: saline 90 % of control | dose: 400.0 mg/kg/injection, schedule: Q01DX Z (ip), vehicle: saline 95 % of control

BrCC1OCCCO1
inactive: dose: 25.0 mg/kg/injection, schedule: Q01DX009 (ip), vehicle: saline with Tween-80 96 % of control | dose: 25.0 mg/kg/injection, schedule: Q04DX002 (ip), vehicle: saline 100 % of control | [1] 118 % of control | [2] 114 % of control | [3] 117 % of control | [4] 100 % of control

Cc1ccc(S(=O)(=O)N2CCC(O)(c3ccccc3)CC2)cc1
inactive: [5] 91 % of control | [6] 90 % of control | [7] 90 % of control | [8] 91 % of control | [9] 92 % of control | [10] 89 % of control

CC(C)C1C(C)N1C(C)C (stereo not drawn)
inactive: dose: 25.0 mg/kg/injection, schedule: Q01DX009 (ip), vehicle: Klucel (hydroxypropylcellulose) (HPC) 107 % of control | [11] 100 % of control | [5] 104 % of control | [6] 95 % of control

O=C(O)c1cccc(Sc2ccccc2)c1
inactive: dose: 100.0 mg/kg/injection, schedule: Q01DX001 (ip), vehicle: carboxymethylcellulose (CMC) 100 % of control | dose: 200.0 mg/kg/injection, schedule: Q01DX001 (ip), vehicle: carboxymethylcellulose (CMC) 90 % of control | dose: 400.0 mg/kg/injection, schedule: Q01DX001 (ip), vehicle: carboxymethylcellulose (CMC) 102 % of control

CCCCCCCCCCC[CH2][Sn]([Cl])([CH2]CCCCCCCCCCC)[CH2]CCCCCCCCCCC
inactive: [3] 96 % of control | dose: 200.0 mg/kg/injection, schedule: Q04DX002 (ip), vehicle: saline with Tween-80 96 % of control | dose: 400.0 mg/kg/injection, schedule: Q04DX002 (ip), vehicle: saline with Tween-80 93 % of control

O=C(O)C1(C(=O)O)CC(c2ccccc2)C1
inactive: dose: 75.0 mg/kg/injection, schedule: Q04DX003 (ip), vehicle: saline with Tween-80 101 % of control | dose: 150.0 mg/kg/injection, schedule: Q01DX009 (ip), vehicle: saline with Tween-80 91 % of control | dose: 150.0 mg/kg/injection, schedule: Q04DX003 (ip), vehicle: saline with Tween-80 95 % of control | dose: 300.0 mg/kg/injection, schedule: Q01DX009 (ip), vehicle: saline with Tween-80 91 % of control | dose: 300.0 mg/kg/injection, schedule: Q04DX003 (ip), vehicle: saline with Tween-80 101 % of control

OCc1nc2cc3nc(CO)[nH]c3cc2[nH]1
inactive: dose: 75.0 mg/kg/injection, schedule: Q01DX001 (ip), vehicle: carboxymethylcellulose (CMC) 98 % of control | dose: 150.0 mg/kg/injection, schedule: Q01DX001 (ip), vehicle: carboxymethylcellulose (CMC) 101 % of control

CC1C(=O)CCC2(C)CCC(C(=O)/C=C/c3ccco3)CC12 (stereo not drawn)
inactive: dose: 100.0 mg/kg/injection, schedule: Q01DX001 (ip), vehicle: Klucel (hydroxypropylcellulose) (HPC) 100 % of control | dose: 200.0 mg/kg/injection, schedule: Q01DX001 (ip), vehicle: Klucel (hydroxypropylcellulose) (HPC) 102 % of control | dose: 400.0 mg/kg/injection, schedule: Q01DX001 (ip), vehicle: Klucel (hydroxypropylcellulose) (HPC) 89 % of control

Cc1cccc(C2NC(=O)c3ccccc3N2)c1 (stereo not drawn)
inactive: [6] 91 % of control | [8] 112 % of control | [10] 91 % of control

O=C(c1cccnc1)c1cccnc1
inactive: [6] 91 % of control | [8] 100 % of control | [10] 97 % of control

O=C1CCSC(=S)N1c1cccc(C(F)(F)F)c1
inactive: dose: 25.0 mg/kg/injection, schedule: Q04DX003 (ip), vehicle: saline with Tween-80 101 % of control | dose: 50.0 mg/kg/injection, schedule: Q04DX003 (ip), vehicle: saline with Tween-80 104 % of control | [12] 104 % of control

O=C1C2(c3ccccc3)C(c3ccccc3)=C(c3ccccc3)C1(c1ccccc1)C1CC=CC12 (stereo not drawn)
inactive: [2] 98 % of control | [12] 96 % of control | dose: 200.0 mg/kg/injection, schedule: Q01DX009 (ip), vehicle: saline with Tween-80 100 % of control | dose: 200.0 mg/kg/injection, schedule: Q04DX003 (ip), vehicle: saline with Tween-80 104 % of control | dose: 400.0 mg/kg/injection, schedule: Q04DX003 (ip), vehicle: saline with Tween-80 96 % of control

CCOc1ccc(NC(=O)CCC(=O)O)cc1
inactive: [5] 91 % of control | [7] 93 % of control | [9] 91 % of control

O=C(NCCCNC(=O)Nc1ccc(C2=NCCCN2)cc1)Nc1ccc(C2=NCCCN2)cc1
inactive: dose: 10.0 mg/kg/injection, schedule: Q01DX015 (ip), vehicle: methylcellulose (MC) 103 % of control | dose: 20.0 mg/kg/injection, schedule: Q01DX015 (ip), vehicle: methylcellulose (MC) 103 % of control

O=[N+]([O-])c1cc(Br)c(N2CCCC2)cc1N1CCCC1
inactive: [5] 106 % of control | [6] 104 % of control | [7] 106 % of control | [8] 93 % of control | [9] 98 % of control | [10] 88 % of control

CCc1ccc2c(c1)N(CC(C)CN(C)C)c1ccccc1S2 (stereo not drawn)
inactive: dose: 1.56 mg/kg/injection, schedule: Q01DX009 (ip), vehicle: saline 115 % of control | dose: 3.12 mg/kg/injection, schedule: Q01DX009 (ip), vehicle: saline 109 % of control | dose: 6.25 mg/kg/injection, schedule: Q01DX009 (ip), vehicle: saline 106 % of control | [13] 102 % of control | dose: 12.5 mg/kg/injection, schedule: Q04DX003 (ip), vehicle: saline 113 % of control | dose: 25.0 mg/kg/injection, schedule: Q04DX003 (ip), vehicle: saline 115 % of control

C/C=C/C[P+](Cc1cccc(C)c1)(c1ccccc1)c1ccccc1
inactive: dose: 3.13 mg/kg/injection, schedule: Q01DX009 (ip), vehicle: saline with Tween-80 107 % of control | dose: 6.25 mg/kg/injection, schedule: Q01DX009 (ip), vehicle: saline with Tween-80 113 % of control | dose: 12.5 mg/kg/injection, schedule: Q01DX009 (ip), vehicle: saline with Tween-80 98 % of control

N#CC(C(=O)c1ccccc1)(C(=O)c1ccccc1)c1cccc2ccccc12
inactive: [11] 89 % of control | [5] 95 % of control | [6] 90 % of control | [7] 92 % of control | [8] 96 % of control | [10] 95 % of control

NC(CCO)C(=O)O (stereo not drawn)
inactive: [1] 96 % of control | [4] 96 % of control | dose: 200.0 mg/kg/injection, schedule: Q04DX002 (ip), vehicle: saline 100 % of control

COc1cc2c(cc1OC)/C(=C\C(=O)N1CCCC1=O)CCC2
inactive: [5] 96 % of control | [6] 104 % of control | [7] 97 % of control | [8] 102 % of control | [9] 94 % of control | [10] 101 % of control

CC1=C2CCC(C)C23C2C(=O)OC(=O)C2C1C1C(=O)OC(=O)C13 (stereo not drawn)
inactive: [13] 107 % of control | dose: 25.0 mg/kg/injection, schedule: Q01DX009 (ip), vehicle: saline 102 % of control | dose: 50.0 mg/kg/injection, schedule: Q01DX009 (ip), vehicle: saline 103 % of control

Cc1ccc(C)c(NC(=O)NCc2ccccc2Cl)c1
inactive: [5] 103 % of control | [6] 104 % of control | [7] 101 % of control | [8] 98 % of control | [9] 93 % of control | [10] 89 % of control
